From patent US7893074B2, “2, 4-pyrimidinediamines useful in the treatment of neoplastic diseases, inflammatory and immune system disorders” (Novartis AG, priority 2003, dated 2011)
Values joined by “and” are separate entries in the source; they are usually repeats but may differ in a detail not shown here. Equal entries are not always repeated. Where two headings read alike, the source gives them in different places.

What was measured:
[1] = biological target: Focal Adhesion Kinase (FAK) (Homo sapiens, UniProt Q05397); assay: FAK assay system (Focal Adhesion Kinase inhibition); assay type: biochemical
[2] = system: Mouse mammary carcinoma 4T1 cells; assay: Anchorage-independent tumor cell growth assay; assay type: cell-based
Procedure: Cells are cultured for 2 h and inhibitors are added at various concentrations in a final concentration of 0.1% DMSO. After 48 h, cell growth is assayed with the cell counting kit-8 (Wako Pure Chemical), which uses a water soluble tetrazolium salt WST8. Twenty μL of the reagent is added into each well and cells are further cultured for 2 h. The optical density is measured at 450 nm.

[3] = biological target: FAK (Mus musculus, UniProt P34152); assay: Phos IC50 (phosphorylation); assay type: cell-based
Chain of FAK (P34152 2-1052): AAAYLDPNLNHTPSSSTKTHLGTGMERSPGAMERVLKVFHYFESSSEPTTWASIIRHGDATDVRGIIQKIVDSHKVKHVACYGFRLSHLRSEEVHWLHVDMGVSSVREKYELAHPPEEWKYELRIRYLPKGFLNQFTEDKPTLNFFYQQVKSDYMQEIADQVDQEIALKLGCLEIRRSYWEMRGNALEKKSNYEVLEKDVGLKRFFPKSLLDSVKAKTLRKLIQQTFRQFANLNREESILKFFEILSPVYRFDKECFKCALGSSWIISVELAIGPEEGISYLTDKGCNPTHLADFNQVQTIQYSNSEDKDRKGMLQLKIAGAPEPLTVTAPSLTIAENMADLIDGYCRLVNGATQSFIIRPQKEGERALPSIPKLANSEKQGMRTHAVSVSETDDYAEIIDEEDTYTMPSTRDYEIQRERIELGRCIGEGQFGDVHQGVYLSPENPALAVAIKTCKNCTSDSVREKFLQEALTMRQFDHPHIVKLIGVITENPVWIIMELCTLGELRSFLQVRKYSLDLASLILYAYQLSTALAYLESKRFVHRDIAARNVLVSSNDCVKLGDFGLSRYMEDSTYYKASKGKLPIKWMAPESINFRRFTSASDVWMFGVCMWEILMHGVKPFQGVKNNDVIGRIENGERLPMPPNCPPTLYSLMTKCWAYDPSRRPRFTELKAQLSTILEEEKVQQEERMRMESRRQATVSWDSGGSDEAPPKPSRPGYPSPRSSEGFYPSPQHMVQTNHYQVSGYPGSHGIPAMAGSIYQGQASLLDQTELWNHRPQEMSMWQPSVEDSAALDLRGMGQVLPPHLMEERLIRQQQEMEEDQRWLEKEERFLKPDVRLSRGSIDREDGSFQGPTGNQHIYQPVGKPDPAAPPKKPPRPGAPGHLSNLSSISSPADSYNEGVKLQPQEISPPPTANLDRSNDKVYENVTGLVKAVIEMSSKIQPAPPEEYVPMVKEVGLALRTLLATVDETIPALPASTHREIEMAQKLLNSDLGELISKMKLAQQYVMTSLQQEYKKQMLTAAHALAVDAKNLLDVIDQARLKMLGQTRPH

Chain of Focal Adhesion Kinase (FAK) (Q05397 384-706): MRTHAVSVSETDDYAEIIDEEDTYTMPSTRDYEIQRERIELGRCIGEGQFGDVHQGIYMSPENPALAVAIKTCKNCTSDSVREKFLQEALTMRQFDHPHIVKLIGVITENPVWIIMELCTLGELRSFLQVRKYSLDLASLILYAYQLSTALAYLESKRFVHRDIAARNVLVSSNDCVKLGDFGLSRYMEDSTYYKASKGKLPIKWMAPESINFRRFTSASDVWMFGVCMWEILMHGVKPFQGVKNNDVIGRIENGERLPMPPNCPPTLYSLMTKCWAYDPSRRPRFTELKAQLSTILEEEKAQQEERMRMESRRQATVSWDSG

Row | Structure (SMILES) | IC50 ([1]; read-out: FAK IC50) | IC50 ([2]; Mus musculus, 4T1) [nM] | also measured
1 | COc1cc(N2CCN3CCOC[C@H]3C2)ccc1Nc1ncc(Cl)c(Nc2cccc3c2C(=O)N(C)C3)n1 [Example 12-6] | 2.6 nM | – | –
2 | CCCCc1ccccc1Nc1ncc(Br)c(Nc2ccccc2S(=O)(=O)NC)n1 [Example 3-10] | 52 nM | > 10000 | IC50 [3]: 950 nM
3 | CNC(=O)c1ccccc1Nc1nc(Nc2cc(N3CCN(C)CC3)ccc2OC)ncc1Cl [Example 7-22] | 25 nM | 480 | –
4 | CNC(=O)c1ccccc1Nc1nc(Nc2ccc(N3CCC(C(N)=O)CC3)cc2OC)ncc1Cl [Example 7-13] | 5.5 nM | 1220 | IC50 [3]: 800 nM
5 | COc1cc(OC2CCN(C)CC2)ccc1Nc1ncc(Cl)c(Nc2ccccc2S(=O)(=O)NC(C)C)n1 [Example 19-7] | 2.1 nM | 110 | IC50 [3]: 300 nM
6 | COc1cc(F)ccc1Nc1ncc(Cl)c(Nc2ccccc2S(=O)(=O)NC(C)C)n1 [Example 19-6] | 5 nM | 700 | IC50 [3]: 1000 nM
7 | COc1cc(N2CCC(N3CCCC3)CC2)ccc1Nc1ncc(Cl)c(Nc2ccccc2S(=O)(=O)NC(C)C)n1 [Example 19-15] | 3.1 nM | 360 | IC50 [3]: 500 nM
8 | CNS(=O)(=O)c1ccccc1Nc1nc(Nc2cc(OC3CCN(C(C)=O)CC3)ccc2OC)ncc1Br [Example 3-75] | 72 nM | 1300 | IC50 [3]: 500 nM
9 | COc1cc(OC2CCN(C)CC2)ccc1Nc1ncc(Cl)c(Nc2ccccc2S(=O)(=O)C(C)C)n1 [Example 28-19] | – | – | IC50 [2]: 140 nM
10 | CNS(=O)(=O)c1ccccc1Nc1nc(Nc2cccc(N(C)C)c2C)ncc1Br [Example 3-53] | – | 210 | IC50 ([1]; FAK IC50): 6 nM
11 | COc1cc(N2CCOCC2)ccc1Nc1ncc(Cl)c(Nc2cccc3c2C(=O)CC3)n1 [Example 14-4] | 18 nM | 540 | –
12 | CNS(=O)(=O)c1ccccc1Nc1nc(Nc2cc(-c3ccc(OC)cc3)ccc2OC)ncc1Br [Example 3-56] | – | 150 | IC50 ([1]; FAK IC50): 28 nM
13 | CNS(=O)(=O)c1ccccc1Nc1nc(Nc2ccc(OC3CCN(C)C3)cc2OC)ncc1Br (stereo not drawn) [Example 3-82] | – | – | IC50 [2]: 70 nM
14 | COc1cc(OCCN2CCOCC2)ccc1Nc1ncc(Cl)c(Nc2ccccc2S(=O)(=O)NC(C)C)n1 [Example 19-29] | 1.9 nM | – | –
15 | CNC(=O)c1cc(N2CCCC2)ccc1Nc1nc(Nc2ccc(N3CCOCC3)cc2OC)ncc1Cl [Example 15-3] | – | – | IC50 [2]: 1670 nM
16 | COc1cc(N2CCC(N3CCN(C)CC3)CC2)ccc1Nc1ncc(Cl)c(Nc2cccc3c2C(=O)N(C)C3)n1 [Example 12-4] | 1.1 nM | 140 | –
17 | CNC(=O)c1ccccc1Nc1nc(Nc2cc(N3CCC(N4CCCCC4)CC3)ccc2OC)ncc1Cl [Example 7-24] | 5.1 nM | 90 | –
18 | COc1cc(N2CCC(N3CCN(C)CC3)CC2)ccc1Nc1ncc(Cl)c(Nc2ccccc2S(=O)(=O)C(C)C)n1 [Example 28-5] | – | 120 | IC50 [3]: 100 nM
19 | CNS(=O)(=O)c1ccccc1Nc1nc(Nc2ccc(OC)cc2OC)ncc1Br [Example 2, 2-[5-Bromo-2-(2,4-dimethoxy-phenylamino)-pyrimidin-4-ylamino]-N-methyl-benzenesulfonamide] | 13 nM | – | –
20 | CNS(=O)(=O)c1ccccc1Nc1nc(Nc2ccc(OC3CCN(C)C3)cc2OC)ncc1Cl (stereo not drawn) [Example 20-29] | – | – | IC50 [2]: 50 nM
21 | COc1cc(N2CCCC(C(N)=O)C2)ccc1Nc1ncc(Cl)c(Nc2ccccc2S(=O)(=O)NC(C)C)n1 (stereo not drawn) [Example 19-19] | 5.7 nM | 400 | –
22 | CNC(=O)c1ccccc1Nc1nc(Nc2ccc(N3CCC[C@@H](C(N)=O)C3)cc2OC)ncc1Cl [Example 7-17] | – | – | IC50 ([1]; FAK IC50): 4.3 nM

Row | Structure (SMILES) | IC50 ([1]; read-out: FAK IC50) | IC50 ([2]; Mus musculus, 4T1) [nM] | also measured
23 | COc1cc(N2CCOCC2)ccc1Nc1ncc(Cl)c(Nc2ccccc2C(=O)N2CCCC2)n1 [Example 14-6] | 63 nM | 1110 | –
24 | CCN1CCN(c2ccc(Nc3ncc(Cl)c(Nc4ccccc4S(=O)(=O)C(C)C)n3)c(OC)c2)CC1 [Example 28-12] | 3.2 nM | 430 | –
25 | CNC(=O)c1ccccc1Nc1nc(Nc2cc(N3CCC(N4CCN(C)CC4)CC3)ccc2OC)ncc1Cl [Example 7-19] | 13 nM | 330 | –
26 | CNC(=O)c1ccccc1Nc1nc(Nc2cc(N3CCC(NC)C3)ccc2OC)ncc1Cl (stereo not drawn) [Example 7-23] | 1.4 nM | 250 | –
27 | COc1cc(N2CCC(O)CC2)ccc1Nc1ncc(Cl)c(Nc2cccc3c2C(=O)N(C)C3)n1 [Example 12-3] | 2.3 nM | 250 | –
28 | CCOc1ccc(OC)cc1Nc1ncc(Br)c(Nc2ccccc2S(=O)(=O)NC)n1 [Example 3-61] | 12 nM | > 10000 | –
29 | CNC(=O)c1cc(N2CCCC2)ccc1Nc1nc(Nc2ccc(N3CCN(C)CC3)cc2OC)ncc1Cl [Example 15-1] | 15 nM | 470 | –
30 | CNC(=O)c1cc(F)c(F)cc1Nc1nc(Nc2ccc(N3CCOCC3)cc2OC)ncc1Cl [Example 14-3] | – | 1010 | IC50 ([1]; FAK IC50): 30 nM
31 | CNC(=O)c1ccccc1Nc1nc(Nc2ccc(N3CCC(N4CCCC4)CC3)cc2OC)ncc1Cl [Example 7-25] | 13 nM and 2 nM | 730 | IC50 [2]: 570 nM
32 | CNS(=O)(=O)c1ccccc1Nc1nc(Nc2cccc3c2CCC3)ncc1Br [Example 3-12] | – | 1000 | IC50 ([1]; FAK IC50): 5.4 nM; IC50 ([1]; FAK inhibition IC50, FAK assay system): 1 to 5 nM
33 | COc1cc(N2CCOCC2)ccc1Nc1ncc(Cl)c(Nc2ccccc2S(=O)(=O)NC2CCCC2)n1 [Example 25-1] | – | 1000 | IC50 ([1]; FAK IC50): 8.5 nM
34 | CNS(=O)(=O)c1ccccc1Nc1nc(Nc2cc(C(=O)N3CCN(C)CC3)ccc2OC)ncc1Br [Example 3-49] | 39 nM | 390 | –
35 | COc1cc([N+](=O)[O-])ccc1Nc1ncc(Cl)c(Nc2ccccc2S(=O)(=O)C(C)C)n1 [Example 28-7] | – | > 10000 | IC50 ([1]; FAK IC50): 47 nM
36 | CCNC(=O)c1ccccc1Nc1nc(Nc2ccc(N3CCC(N4CCCCC4)CC3)cc2OC)ncc1Cl [Example 9-3] | – | – | IC50 [2]: 370 nM
37 | COc1cc(OCC(C)(C)CN(C)C)ccc1Nc1ncc(Cl)c(Nc2ccccc2S(=O)(=O)NC(C)C)n1 [Example 19-24] | – | 120 | IC50 ([1]; FAK IC50): 1.8 nM
38 | COc1cc(N2CCN(C)CC2)ccc1Nc1ncc(Cl)c(Nc2cccc3c2C(=O)N(C)C3)n1 [Example 12-2] | 1.6 nM | 50 | –
39 | CNS(=O)(=O)c1ccccc1Nc1nc(Nc2ccc(F)cc2F)ncc1Br [Example 3-36] | – | 2800 | IC50 ([1]; FAK IC50): 43 nM
40 | CNC(=O)c1ccccc1Nc1nc(Nc2ccc(N3CCNCC3)cc2OC)ncc1Cl [Example 7-26] | 4.1 nM | 150 | –
41 | CCC(CC)NS(=O)(=O)c1ccccc1Nc1nc(Nc2ccc(OC3CCN(C)C3)cc2OC)ncc1Cl (stereo not drawn) [Example 23-7] | – | – | IC50 [2]: 840 nM
42 | CNC(=O)c1ccccc1Nc1nc(Nc2ccc(N3CCC[C@H](C(N)=O)C3)cc2OC)ncc1Cl [Example 7-18] | – | – | IC50 ([1]; FAK IC50): 6.2 nM
43 | CCN1Cc2cccc(Nc3nc(Nc4ccc(N5CCN(C)CC5)cc4OC)ncc3Cl)c2C1=O [Example 13-1] | 65 nM | 810 | –

Continued, in another order:

Row | IC50 ([1]; read-out: FAK IC50) | IC50 ([2]; Mus musculus, 4T1) [nM] | Structure (SMILES) | also measured
44 | 28 nM | 210 | CNS(=O)(=O)c1ccccc1Nc1nc(Nc2cc(N3CCC(O)CC3)ccc2OC)ncc1Cl [Example 20-19] | –
45 | 6.8 nM | 1460 | CNS(=O)(=O)c1ccccc1Nc1nc(Nc2ccc(N3CCC(NC(C)=O)C3)cc2OC)ncc1Cl (stereo not drawn) [Example 20-5] | IC50 [3]: 870 nM
46 | 33 nM | 320 | CCCOc1cc(N2CCN(C)CC2)ccc1Nc1ncc(Cl)c(Nc2ccccc2S(=O)(=O)NC)n1 [Example 20-14] | –
47 | 25 nM | 990 | COc1cc(-n2cncn2)ccc1Nc1ncc(Cl)c(Nc2ccccc2S(=O)(=O)C2CC2)n1 [Example 30-4] | IC50 [3]: 300 nM
48 | 5.1 nM | 1100 | CCS(=O)(=O)c1ccccc1Nc1nc(Nc2ccc(N3CCC(N4CCCCC4)CC3)cc2OC)ncc1Cl [Example 27-2] | IC50 [3]: 500 nM
49 | 2.5 nM | 250 | COc1cc(N2CCN(C(C)=O)CC2)ccc1Nc1ncc(Cl)c(Nc2ccccc2S(=O)(=O)C2CCCC2)n1 [Example 33-1] | IC50 [3]: 80 nM
50 | 1.1 nM | – | CCCS(=O)(=O)c1ccccc1Nc1nc(Nc2ccc(N3CCN(CC(=O)NC(C)C)CC3)cc2OC)ncc1Cl [Example 26-21] | IC50 [3]: 100 nM
51 | 6.3 nM | 40 | CNS(=O)(=O)c1ccccc1Nc1nc(Nc2cc(OC)c(N3CCN(C)CC3)cc2OC)ncc1Cl [Example 20-13] | –
52 | 5 nM | 190 | CCCS(=O)(=O)c1ccccc1Nc1nc(Nc2ccc(N3CCCC(C(N)=O)C3)cc2OC)ncc1Cl (stereo not drawn) [Example 26-14] | –
53 | 13 nM | 110 | CNS(=O)(=O)c1ccccc1Nc1nc(Nc2cc(N3CCC(N4CCCCC4)CC3)ccc2OC)ncc1Cl [Example 20-32] | –
54 | 4.4 nM | – | CNC1CCN(c2ccc(Nc3ncc(Cl)c(Nc4ccccc4S(=O)(=O)C(C)C)n3)c(OC)c2)CC1 [Example 28-20] | IC50 [3]: […]
55 | 9.5 nM | – | CNS(=O)(=O)c1ccccc1Nc1nc(Nc2cc(OC)c(N3CCOCC3)cc2OC)ncc1Cl [Example 20-12] | –
56 | 2.5 nM | 380 | CNC1CCN(c2ccc(OC)c(Nc3ncc(Cl)c(Nc4ccccc4S(=O)(=O)NC)n3)c2)C1 (stereo not drawn) [Example 20-33] | –
57 | 15 nM | 810 | CNS(=O)(=O)c1ccccc1Nc1nc(Nc2cc(N3CCC(N4CCN(C)CC4)CC3)ccc2OC)ncc1Cl [Example 20-18] | –
58 | 39 nM | 500 | CNS(=O)(=O)c1ccccc1Nc1nc(Nc2cc(N3CCN(C)CC3)ccc2OC)ncc1Cl [Example 20-31] | –
59 | 2 nM | 140 | CNC1CCN(c2ccc(Nc3ncc(Cl)c(Nc4ccccc4S(=O)(=O)NC)n3)c(OC)c2)C1 (stereo not drawn) [Example 20-17] | –
60 | 7.5 nM | 60 | CNS(=O)(=O)c1ccccc1Nc1nc(Nc2ccc(N3CCC(N4CCN(C)CC4)CC3)cc2OC)ncc1Cl [Example 20-16] | –
